We go through 24 compounds from ChEMBL document CHEMBL1909046, “DrugMatrix in vitro pharmacology data”.

One data set addresses T1, Adenosine receptor A1 (Homo sapiens, UniProt P30542).
T1 sequence (P30542 whole entry): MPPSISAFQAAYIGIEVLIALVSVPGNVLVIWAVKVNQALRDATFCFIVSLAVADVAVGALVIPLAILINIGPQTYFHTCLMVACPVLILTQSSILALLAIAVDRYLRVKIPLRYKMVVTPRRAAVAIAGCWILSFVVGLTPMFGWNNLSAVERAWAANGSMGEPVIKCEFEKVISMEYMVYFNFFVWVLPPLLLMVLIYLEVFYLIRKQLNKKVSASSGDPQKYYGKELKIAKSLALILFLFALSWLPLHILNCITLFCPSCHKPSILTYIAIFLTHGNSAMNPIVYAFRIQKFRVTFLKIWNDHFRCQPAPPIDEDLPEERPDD
In kind it is cell membranes, CHO, Membrane.

For data set [1], the target named is Voltage-gated inwardly rectifying potassium channel KCNH2 (Homo sapiens, UniProt Q12809). As to conditions: hek293. Note: in other assays of this panel Not Active means under 50% inhibition at 10 µM.
Sequence of Voltage-gated inwardly rectifying potassium channel KCNH2 (Q12809 whole entry): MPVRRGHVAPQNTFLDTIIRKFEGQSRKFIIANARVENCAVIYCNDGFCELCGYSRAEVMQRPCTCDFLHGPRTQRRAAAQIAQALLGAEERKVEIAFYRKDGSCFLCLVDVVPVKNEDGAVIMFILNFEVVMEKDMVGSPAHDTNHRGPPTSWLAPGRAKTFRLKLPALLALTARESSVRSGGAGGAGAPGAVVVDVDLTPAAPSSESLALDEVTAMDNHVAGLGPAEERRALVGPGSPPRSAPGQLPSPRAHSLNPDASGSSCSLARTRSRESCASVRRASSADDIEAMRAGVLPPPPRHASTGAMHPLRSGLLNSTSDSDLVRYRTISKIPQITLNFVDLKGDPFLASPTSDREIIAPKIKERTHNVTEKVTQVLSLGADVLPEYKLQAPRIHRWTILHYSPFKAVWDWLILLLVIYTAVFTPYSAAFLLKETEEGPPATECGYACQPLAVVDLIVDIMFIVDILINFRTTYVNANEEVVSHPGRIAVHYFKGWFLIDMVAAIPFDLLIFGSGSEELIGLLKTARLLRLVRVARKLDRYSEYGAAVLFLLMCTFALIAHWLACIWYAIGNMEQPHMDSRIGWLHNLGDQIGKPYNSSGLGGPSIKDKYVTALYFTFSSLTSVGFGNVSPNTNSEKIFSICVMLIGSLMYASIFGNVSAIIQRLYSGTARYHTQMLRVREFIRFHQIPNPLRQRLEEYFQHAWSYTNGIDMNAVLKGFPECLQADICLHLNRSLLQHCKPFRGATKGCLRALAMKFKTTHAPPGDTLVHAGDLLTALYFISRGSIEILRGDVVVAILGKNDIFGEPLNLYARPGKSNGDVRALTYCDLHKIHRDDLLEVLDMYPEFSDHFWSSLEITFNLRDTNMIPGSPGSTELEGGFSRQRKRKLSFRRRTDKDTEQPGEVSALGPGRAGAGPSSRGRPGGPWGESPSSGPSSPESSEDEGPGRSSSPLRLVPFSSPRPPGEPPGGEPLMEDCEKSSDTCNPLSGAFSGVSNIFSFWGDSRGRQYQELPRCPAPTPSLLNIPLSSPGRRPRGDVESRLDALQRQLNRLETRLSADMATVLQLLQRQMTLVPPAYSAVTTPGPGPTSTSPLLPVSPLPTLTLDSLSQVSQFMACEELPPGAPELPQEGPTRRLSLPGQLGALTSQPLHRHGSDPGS
For data set [2], the target named is T2, Polyunsaturated fatty acid lipoxygenase ALOX15 (Oryctolagus cuniculus, UniProt P12530).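 Note: inhibition of 15-lipoxygenase enzyme activity measured with linoleic acid as the substrate; in other assays of this panel Not Active means under 50% inhibition at 10 µM.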
T2 sequence (P12530 whole entry): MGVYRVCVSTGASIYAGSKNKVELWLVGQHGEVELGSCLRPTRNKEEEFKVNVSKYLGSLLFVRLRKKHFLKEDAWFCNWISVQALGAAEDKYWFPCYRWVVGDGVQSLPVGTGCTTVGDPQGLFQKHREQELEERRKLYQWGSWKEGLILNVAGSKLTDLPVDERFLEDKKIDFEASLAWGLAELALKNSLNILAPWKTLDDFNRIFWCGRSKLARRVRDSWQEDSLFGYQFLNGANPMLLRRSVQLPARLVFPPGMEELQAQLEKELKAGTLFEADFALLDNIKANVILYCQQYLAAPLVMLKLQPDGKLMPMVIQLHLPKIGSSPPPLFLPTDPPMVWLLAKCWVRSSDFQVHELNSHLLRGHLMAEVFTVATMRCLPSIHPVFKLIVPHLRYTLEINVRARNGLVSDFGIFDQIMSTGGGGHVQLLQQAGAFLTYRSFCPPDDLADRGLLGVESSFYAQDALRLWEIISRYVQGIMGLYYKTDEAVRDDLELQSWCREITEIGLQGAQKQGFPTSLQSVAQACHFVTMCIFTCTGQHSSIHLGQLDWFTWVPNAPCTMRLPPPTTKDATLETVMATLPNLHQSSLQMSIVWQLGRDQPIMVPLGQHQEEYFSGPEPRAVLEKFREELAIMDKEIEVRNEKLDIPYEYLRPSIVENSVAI
The experiment in a line: biochemical. In kind it is tissue-based, Reticulocytes.

Another data set addresses T3, Progesterone receptor (Bos taurus, UniProt Q690N0).
T3 sequence (Q690N0 whole entry): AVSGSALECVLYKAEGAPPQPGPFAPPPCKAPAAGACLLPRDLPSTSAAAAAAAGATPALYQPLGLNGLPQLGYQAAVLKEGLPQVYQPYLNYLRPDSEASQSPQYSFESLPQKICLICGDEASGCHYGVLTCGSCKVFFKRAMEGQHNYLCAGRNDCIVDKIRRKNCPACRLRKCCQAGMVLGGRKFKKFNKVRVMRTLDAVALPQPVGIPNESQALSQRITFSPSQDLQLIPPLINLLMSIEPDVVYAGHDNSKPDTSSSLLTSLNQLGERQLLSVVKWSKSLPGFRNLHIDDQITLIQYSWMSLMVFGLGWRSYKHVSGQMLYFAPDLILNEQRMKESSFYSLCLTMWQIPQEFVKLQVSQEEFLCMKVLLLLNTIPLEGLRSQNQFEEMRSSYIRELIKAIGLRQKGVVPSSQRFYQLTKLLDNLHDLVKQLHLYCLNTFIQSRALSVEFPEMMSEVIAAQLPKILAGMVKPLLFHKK
Put plainly: DRUGMATRIX: Progesterone radioligand binding (ligand: [3H] R-5020). In kind it is tissue-based, Uterus. As to conditions: Not Active = under 50% inhibition at 10 µM; for Ki: read-out: Ki.

In data set [3] the target is 5-hydroxytryptamine receptor 6 (Homo sapiens, UniProt P50406). In kind it is cell membranes, HeLa, Membrane. The settings on record: for Ki: read-out: Ki. For all read-outs here: in other assays of this panel Not Active means under 50% inhibition at 10 µM.
Sequence of 5-hydroxytryptamine receptor 6 (P50406 whole entry): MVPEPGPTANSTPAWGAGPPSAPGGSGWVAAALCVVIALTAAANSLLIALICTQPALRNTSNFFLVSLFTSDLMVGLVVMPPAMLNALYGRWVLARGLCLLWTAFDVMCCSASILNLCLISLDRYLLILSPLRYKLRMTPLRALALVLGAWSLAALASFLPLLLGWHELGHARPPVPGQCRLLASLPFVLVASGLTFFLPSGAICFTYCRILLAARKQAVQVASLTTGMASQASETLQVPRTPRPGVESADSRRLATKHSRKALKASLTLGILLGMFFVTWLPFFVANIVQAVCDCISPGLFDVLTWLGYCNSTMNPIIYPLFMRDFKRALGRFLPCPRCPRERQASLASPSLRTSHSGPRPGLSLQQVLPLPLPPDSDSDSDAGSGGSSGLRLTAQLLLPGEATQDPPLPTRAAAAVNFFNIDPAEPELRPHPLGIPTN

What is called IC50 is the concentration that gives 50% inhibition. In general, Ki refers to a measure of affinity in units of concentration, obtained from inhibition or displacement. As to `CC(C)(C)NC(=O)[C@@H]1C[C@@H]2CCCC[C@@H]2CN1C[C@@H](O)[C@H](Cc1ccccc1)NC(=O)[C@H](CC(N)=O)NC(=O)c1ccc2ccccc2n1`, the IC50 entry (against Adenosine receptor A1 (cho); in data set [1]; in data set [2] (reticulocytes); at Progesterone receptor; in data set [3] (hela)) was “Not Active” throughout. Also, the Ki entry in data set [1] is reported as “Not Active”.

In the case of `CC1(C)O[C@@H]2C[C@H]3[C@@H]4CCC5=CC(=O)C=C[C@]5(C)[C@@]4(F)[C@@H](O)C[C@]3(C)[C@]2(C(=O)CO)O1` [TRIAMCINOLONE ACETONIDE], the IC50 entry against Adenosine receptor A1 (cho) was “Not Active”; in data set [1] it was “Not Active”; in data set [2] (reticulocytes) it was “Not Active”; at Progesterone receptor (read-out: IC50) it was 0.179 µM; in data set [3] (hela), “Not Active”. In addition, the figures for the Ki result (in data set [1]; on Progesterone receptor) were “Not Active” and 0.023 µM, respectively.

Consider `Cc1cccc(N(C)C(=S)Oc2ccc3ccccc3c2)c1` [TOLNAFTATE], for which the IC50 entry (against Adenosine receptor A1 (cho); in data set [1]; in data set [2] (reticulocytes); on Progesterone receptor; in data set [3] (hela)) was “Not Active” throughout. Moreover, the Ki entry in data set [1] was “Not Active”.

As to `C[C@@H]1CN(c2c(F)c(N)c3c(=O)c(C(=O)O)cn(C4CC4)c3c2F)C[C@H](C)N1` [SPARFLOXACIN], the IC50 entry (against Adenosine receptor A1 (cho); in data set [2] (reticulocytes); on Progesterone receptor; in data set [3] (hela)) was “Not Active” each time.

For the compound `Cn1ccnc1S` [METHIMAZOLE], the IC50 result (against Adenosine receptor A1 (cho); in data set [1]; in data set [2] (reticulocytes); on Progesterone receptor; in data set [3] (hela)) was “Not Active” each time. The Ki result in data set [1] was “Not Active”.

In the case of `CN1CCN(CCCN2c3ccccc3Sc3ccc(Cl)cc32)CC1` [PROCHLORPERAZINE], the IC50 result against Adenosine receptor A1 (cho) was “Not Active”; in data set [2] (reticulocytes), “Not Active”; at Progesterone receptor, “Not Active”; in data set [3] (read-out: IC50), 0.267 µM. Also, the Ki in data set [3] was 0.124 µM.

As for `C=CCC1(C(C)CCC)C(=O)NC(=O)NC1=O` (stereo not drawn) [SECOBARBITAL], the IC50 entry (on Adenosine receptor A1 (cho); in data set [1]; in data set [2] (reticulocytes); on Progesterone receptor; in data set [3] (hela)) was “Not Active” in each case. In addition, the Ki result in data set [1] was “Not Active”.

Turning to `N[C@@H](Cc1ccc(N(CCCl)CCCl)cc1)C(=O)O`, the IC50 entry (against Adenosine receptor A1 (cho); in data set [1]; in data set [2] (reticulocytes); on Progesterone receptor; in data set [3] (hela)) was “Not Active” throughout. Also, the Ki result in data set [1] is listed as “Not Active”.

On to `Nc1nc2ccc(OC(F)(F)F)cc2s1` [RILUZOLE], for which the IC50 entry (against Adenosine receptor A1 (cho); in data set [2] (reticulocytes); on Progesterone receptor; in data set [3] (hela)) was “Not Active” in each case.

As for `N[C@@H]1[C@H]2CN(c3nc4c(cc3F)c(=O)c(C(=O)O)cn4-c3ccc(F)cc3F)C[C@@H]12` [TROVAFLOXACIN], the IC50 result (at Adenosine receptor A1 (cho); in data set [1]; in data set [2] (reticulocytes); on Progesterone receptor; in data set [3] (hela)) was “Not Active” each time. In addition, the Ki result in data set [1] is given as “Not Active”.

As for `COc1c(C)c2c(c(O)c1C/C=C(\C)CCC(=O)O)C(=O)OC2` [MYCOPHENOLIC ACID], the IC50 result (against Adenosine receptor A1 (cho); in data set [1]; in data set [2] (reticulocytes); at Progesterone receptor; in data set [3] (hela)) was “Not Active” each time. Further, the inhibitory constant (Ki) result in data set [1] is recorded as “Not Active”.

`CCCOc1ccccc1-c1nc2nn[nH]c2c(=O)[nH]1` [ZAPRINAST]: the IC50 result (against Adenosine receptor A1 (cho); in data set [1]; in data set [2] (reticulocytes); at Progesterone receptor; in data set [3] (hela)) was “Not Active” throughout. The Ki entry in data set [1] is on record as “Not Active”.

Consider `Nc1nc2nc[nH]c2c(=S)[nH]1` [THIOGUANINE], for which the IC50 result at Adenosine receptor A1 (cho) is “Not Active”; in data set [2] (read-out: IC50) it was 16.2 µM; at Progesterone receptor, “Not Active”; in data set [3] (hela), “Not Active”.

With `Cc1c(C)c2c(c(C)c1O)CCC(C)(COc1ccc(CC3SC(=O)NC3=O)cc1)O2` (stereo not drawn) [TROGLITAZONE], the IC50 entry (on Adenosine receptor A1 (cho); in data set [1]; in data set [2] (reticulocytes); at Progesterone receptor; in data set [3] (hela)) was “Not Active” in each case. In data set [1], the Ki result was “Not Active”.

On to `Cc1nc2n(c(=O)c1CCN1CCC(c3noc4cc(F)ccc34)CC1)CCCC2` [RISPERIDONE], for which the IC50 result (on Adenosine receptor A1 (cho); in data set [2] (reticulocytes); on Progesterone receptor; in data set [3] (hela)) was “Not Active” throughout.

As to `COc1nc(C)nc(Cl)c1NC1=NCCN1` [MOXONIDINE], the IC50 entry (on Adenosine receptor A1 (cho); in data set [1]; in data set [2] (reticulocytes); on Progesterone receptor; in data set [3] (hela)) was “Not Active” each time. Besides, the Ki entry in data set [1] was “Not Active”.

As for `N[C@@H](Cc1cc(I)c(Oc2ccc(O)c(I)c2)c(I)c1)C(=O)O` [LIOTHYRONINE], the IC50 was 0.411 µM on Adenosine receptor A1 (read-out: IC50); “Not Active” in data set [1]; “Not Active” in data set [2] (reticulocytes); “Not Active” at Progesterone receptor; “Not Active” in data set [3] (hela). The Ki on Adenosine receptor A1 (read-out: Ki) is 0.24 µM; in data set [1], “Not Active”.

As to `OCCN(CCO)c1nc(N2CCCCC2)c2nc(N(CCO)CCO)nc(N3CCCCC3)c2n1` [DIPYRIDAMOLE], the IC50 result at Adenosine receptor A1 (cho) is “Not Active”; in data set [1], “Not Active”; in data set [2] (read-out: IC50) it was 6.96 µM; on Progesterone receptor it was “Not Active”; in data set [3] (hela), “Not Active”. In data set [1], the Ki entry was “Not Active”.

Take `O=NN(CCCl)C(=O)NC1CCCCC1` [LOMUSTINE]: the IC50 entry (on Adenosine receptor A1 (cho); in data set [1]; in data set [2] (reticulocytes); on Progesterone receptor; in data set [3] (hela)) was “Not Active” throughout. In addition, in data set [1], the Ki entry was “Not Active”.

For the compound `O=c1ncn2nc(Sc3ccc(F)cc3F)ccc2c1-c1c(Cl)cccc1Cl` [NEFLAMAPIMOD], the IC50 result (at Adenosine receptor A1 (cho); in data set [1]; in data set [2] (reticulocytes); on Progesterone receptor; in data set [3] (hela)) was “Not Active” in each case. Further, the Ki result in data set [1] is given as “Not Active”.

Take `CC[C@]1(O)C[C@H]2CN(CCc3c([nH]c4ccccc34)[C@@](C(=O)OC)(c3cc4c(cc3OC)N(C=O)[C@H]3[C@@](O)(C(=O)OC)[C@H](OC(C)=O)[C@]5(CC)C=CCN6CC[C@]43[C@@H]65)C2)C1` [VINCRISTINE]: the IC50 result (against Adenosine receptor A1 (cho); in data set [1]; in data set [2] (reticulocytes); at Progesterone receptor; in data set [3] (hela)) was “Not Active” each time. Further, the Ki result in data set [1] is on record as “Not Active”.

With `CCCCc1oc2ccccc2c1C(=O)c1cc(I)c(OCCN(CC)CC)c(I)c1` [AMIODARONE], the IC50 result against Adenosine receptor A1 (cho) was “Not Active”; in data set [2] (reticulocytes) it was “Not Active”; on Progesterone receptor it was “Not Active”; in data set [3] (read-out: IC50) it was 19.4 µM. Also, in data set [3], the Ki stood at 9.03 µM.

Regarding `CCOC(=O)N1CCC(=C2c3ccc(Cl)cc3CCc3cccnc32)CC1` [LORATADINE], the IC50 result (on Adenosine receptor A1 (cho); in data set [2] (reticulocytes); on Progesterone receptor; in data set [3] (hela)) was “Not Active” each time.

As to `CC/C(=C(\c1ccccc1)c1ccc(OCCN(C)C)cc1)c1ccccc1` [TAMOXIFEN], the concentration for half-maximal inhibition (IC50) result was “Not Active” in data set [2] (reticulocytes), 19.8 µM at Progesterone receptor (read-out: IC50) and 2.68 µM in data set [3] (read-out: IC50). Further, the values for the inhibition constant (Ki) (at Progesterone receptor; in data set [3]) were 2.59 µM and 1.24 µM, respectively.
